Data as given in BindingDB's records for doi:10.1016/j.bmcl.2012.06.068 (Chulalongkorn University, 2012).

What was measured:
[1] = Competitive inhibition of rat intestinal maltase using maltose as substrate assessed as dissociation of enzyme-inhibitor complex at 0.1 to 1 mg/ml by Dixon plot analysis
[2] = Non-competitive inhibition of rat intestinal maltase using maltose as substrate assessed as dissociation of enzyme-substrate-inhibitor complex at 0.1 to 1 mg/ml by secondary plot analysis

Compound `COc1cc([C@@H]2OC[C@@H]3[C@H]2CO[C@H]3c2ccc(O)c(OC)c2)ccc1O` [4-[(1S,3aR,4S,6aR)-4-(4-hydroxy-3-methoxyphenyl)tetrahydro-1H,3H-furo[3,4-c]furan-1-yl]-2-methoxyphenol] has a Ki [1] of 288 µM and a Ki [2] of 1340 µM.
